In article PMC8416018, “Characterization of the ABC methionine transporter from Neisseria meningitidis reveals that lipidated MetQ is required for interaction” (eLife, 2021):

Each compound was assayed against T1, lipo-NmMetQ:NmMetNI (methionine site) (Neisseria meningitidis, UniProt Q7DD63) (assay: EnzChek phosphate ATPase stimulation). Settings: 2 mM ATP, NmMetNI:lipo-NmMetQ:analog 1:8:50 molar ratio, 5 mM MgCl2, pH 7.5, 37 C, 0.05% DDM.
T1 construct: gene NMB1946; full-length MetQ, signal cleaved, triacylated at Cys20, C-terminal His10; MetNI with His10 on MetN; DDM-solubilized; E. coli; Methionine ABC transporter permease protein MetI
T1 sequence (Q7DD63 20-287): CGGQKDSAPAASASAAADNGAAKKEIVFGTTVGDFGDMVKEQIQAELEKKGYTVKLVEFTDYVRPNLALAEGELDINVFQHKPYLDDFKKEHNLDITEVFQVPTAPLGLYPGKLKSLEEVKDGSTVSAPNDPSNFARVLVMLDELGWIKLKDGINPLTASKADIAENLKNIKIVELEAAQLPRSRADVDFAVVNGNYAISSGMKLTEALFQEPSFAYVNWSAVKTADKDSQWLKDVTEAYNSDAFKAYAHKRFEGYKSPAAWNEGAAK
T1 sequence (Q9JXP2 1-245 partner): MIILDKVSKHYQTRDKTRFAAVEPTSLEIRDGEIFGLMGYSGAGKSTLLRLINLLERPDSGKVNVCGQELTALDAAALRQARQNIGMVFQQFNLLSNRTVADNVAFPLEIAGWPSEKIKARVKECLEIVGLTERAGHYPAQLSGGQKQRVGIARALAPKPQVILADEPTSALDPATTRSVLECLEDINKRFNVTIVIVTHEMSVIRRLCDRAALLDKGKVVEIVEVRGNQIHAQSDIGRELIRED
T1 sequence (Q9JXP3 1-228 partner): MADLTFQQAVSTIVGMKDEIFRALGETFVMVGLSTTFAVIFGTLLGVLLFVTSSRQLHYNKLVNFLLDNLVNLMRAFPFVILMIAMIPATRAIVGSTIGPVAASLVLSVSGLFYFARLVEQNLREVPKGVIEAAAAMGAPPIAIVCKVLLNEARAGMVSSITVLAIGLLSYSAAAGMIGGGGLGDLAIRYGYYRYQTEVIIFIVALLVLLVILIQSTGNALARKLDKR
Assay type: biochemical

Compound | EnzChek phosphate ATPase stimulation
CSCC[C@H](NC=O)C(=O)O [N-formyl-L-methionine] | methionine analogs led to substrate-stimulated ATPase activity: N-acetyl-L-methionine, N-formyl-L-methionine

The compounds below were run against T2, NLM-NmMetQ (Neisseria meningitidis, UniProt Q7DD63) (assay: […] NMR CPMG relaxation, direct reporter binding). Settings: 43 uM protein, 2 mM reporter, T2 120 ms, 300 K.
T2 construct: gene NMB1946; made as in Nguyen et al. 2019; E. coli BL21(DE3) Gold
T2 sequence (Q7DD63 22-287): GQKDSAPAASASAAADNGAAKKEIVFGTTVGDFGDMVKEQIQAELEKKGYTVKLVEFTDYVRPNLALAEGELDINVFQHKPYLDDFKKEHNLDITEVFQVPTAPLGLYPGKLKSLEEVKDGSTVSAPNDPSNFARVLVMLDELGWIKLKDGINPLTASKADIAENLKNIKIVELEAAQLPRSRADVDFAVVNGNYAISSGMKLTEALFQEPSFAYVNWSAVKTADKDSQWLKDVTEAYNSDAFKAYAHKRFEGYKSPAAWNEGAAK

Compound | -ln(CPMG/1D)
N[C@@H](CCSC(F)(F)F)C(=O)O [Trifluoromethyl-methionine] | reporter molecule plus NLM-NmMetQ has a high -ln(CPMG/1D) ratio

Each compound was assayed against T2, NLM-NmMetQ (assay: […] NMR FAXS competition). Settings: 43 uM protein, 43 uM analog, 2 mM trifluoromethyl methionine reporter, T2 120 ms, 300 K; competitive.
Assay type: binding

Compound | -ln(CPMG/1D)
CSCC[C@@H](N)C(=O)O [D-methionine] | D-methionine displaced less reporter than L-methionine
CCSCC[C@H](N)C(=O)O [L-ethionine] | addition of a methylene group (L-ethionine) was better tolerated
CCOC(=O)[C@@H](N)CCSC [L-methionine ethyl ester] | L-methionine ethyl ester only partially displaced the reporter molecule
CS(=N)(=O)CC[C@H](N)C(=O)O (stereo partly drawn) [L-methionine sulfoximine] | seleno-L-methionine, L-methionine sulfoximine, and L-norleucine were well tolerated
CSCC[C@H](N)C(=O)O [L-methionine] | L-methionine completely displaced the reporter molecule
CCCC[C@H](N)C(=O)O [L-norleucine] | seleno-L-methionine, L-methionine sulfoximine, and L-norleucine were well tolerated
CSCC[C@H](NC(C)=O)C(=O)O [N-acetyl-L-methionine] | Addition of these analogs led to the respective complete or near complete displacement
CSCC[C@H](NC=O)C(=O)O [N-formyl-L-methionine] | Addition of these analogs led to the respective complete or near complete displacement
C[Se]CC[C@H](N)C(=O)O [seleno-L-methionine] | seleno-L-methionine, L-methionine sulfoximine, and L-norleucine were well tolerated
